Measurements reported in patent US20250270180A1, “MEK INHIBITORS AND THERAPEUTIC USES THEREOF” (Immuneering Corporation, priority 2020, published 2025).
“And” between values parts separate entries of the source, which are not always exact repeats. Equal values may be shown once.

Columns and labels:
A549 (KRAS-G12S) pERK = test: Cell-based pERK dose response study, A549
Description: (§1) Materials and Methods: A549 or A375 cells were seeded in 6-well plates at an appropriate seeding density on day 0. On day 2 or 3, after checking the health and confluency of cells, the media was aspirated and replaced with 1 mL media containing a predetermined concentration of compound and incubated for 2 hours. After 2 hours, the media was aspirated, and the cells washed 2 times with cold PBS. Cells were lysed on ice, with 50 uL 1×CST lysis buffer+1 mM PMSF for 5 minutes. After 5 minutes, cells were removed using a scraper and transferred to cold 1.5 mL tubes, and centrifuged for 10 min, 4° C., 14,000×g. Supernatant was gently removed and snap frozen in liquid nitrogen. Protein concentration of the lysate was determined using Bradford Reagent (analyzed using SpectraMax M2E) and diluted to 1 mg/mL or pERK or 1.5 mg/mL for pMEK analysis. […] All dilutions were in Milk-free antibody diluent.

A375 pERK:tERK = test: Cell-based pERK:tERK, A375
Description: as §1

[1] = Metabolite ID study, six species hepatocytes; assay type: in vitro ADME; conditions: hepatocyte incubations, T=60 min
Description: (§2) Animal Studies: Compound 9 was tested using six species hepatocytes in a metabolite ID study (T=60 min).
(§3) Cryopreserved hepatocytes from a selected species were thawed and incubated in duplicate with 10 uM compound 9 in Krebs-Henseleit buffer. […] Viability of hepatocytes was >70% after thawing.
(§4) (Eppendorf 5804R). […] The disappearance of the parent compound was determined, and the formation of metabolites was evaluated. Metabolites present at >1% of total compound related material (based on peak area) were identified by interpretation of the LC-MS/MS data.
(§5) The spectra obtained from all samples were screened for the presence of m/z values that are absent in the blank incubations (incubations with hepatocytes without compound and with vehicle control, and incubations of compound in buffer without hepatocytes). T=60 min incubations were used as an initial screening. All possible metabolites observed were semi-quantified by MS response (peak area). MS2 spectra were interpreted to determine possible location of the metabolism reaction. The presence of metabolites identified was compared across the selected species.
Primary metabolite shown for each species in bold font. Several masses found were also present in incubations with compound in buffer and were considered not to be metabolites.

[2] = Mouse liver microsome stability (t1/2, Clint); assay type: in vitro ADME; conditions: liver microsomes, pH 7.4, 0.5 mg/ml microsomal protein
Description: (Eppendorf 5804R). […] The disappearance of the parent compound was determined.

[3] = Metabolite ID study, mouse hepatocytes; assay type: in vitro ADME; conditions: 10 uM compound 9, T=60 min
Description: as §2, §3, §4
(§6) MS settings were optimized for the flow rate. Full scan spectra were acquired in combination with data dependent MS2.
as §5

[4] = tested on: A549 (KRAS G12S) pERK: total ERK; test: Phospho-ERK screen in A549 (KRAS G12S); assay type: cell-based; conditions: 10 μM for 2 hours
Description: Materials and Methods: A549 or A375 cells were seeded in 6-well plates at an appropriate seeding density on day 0. On day 2 or 3, after checking the health and confluency of cells, the media was aspirated and replaced with 1 mL media containing a predetermined concentration of compound and incubated for 2 hours. After 2 hours, the media was aspirated, and the cells washed 2 times with cold PBS. Cells were lysed on ice, with 50 uL 1×CST lysis buffer+1 mM PMSF for 5 minutes. After 5 minutes, cells were removed using a scraper and transferred to cold 1.5 mL tubes, and centrifuged for 10 min, 4° C., 14,000×g. Supernatant was gently removed and snap frozen in liquid nitrogen. Protein concentration of the lysate was determined using Bradford Reagent (analyzed using SpectraMax M2E) and diluted to 1 mg/mL or pERK or 1.5 mg/mL for pMEK analysis. Cell lysates were then analyzed for phosphor-ERK/total-ERK levels on a Jess system (ProteinSimple; Cat #JS3346) using the following antibodies: tERK1/2 (CST 4696; 1:50) and pERK1/2 (CST 4377; 1:50). For pMEK/tMEK, the following antibodies were used: tMEK1/2 (CST 4694; 1:15) and pMEK1/2 (CST 9154; 1:400). All dilutions were in Milk-free antibody diluent.
The results of a phospho-ERK Screen in A549 (KRAS G12S) study is described in Table 7, 7A, 7B, and 8 below.

[5] = Metabolite ID study, monkey hepatocytes; assay type: in vitro ADME; conditions: 10 uM compound 9, T=60 min
Description: as §2, §3, §4, §6, §5

[6] = Human liver microsome stability (t1/2, Clint); assay type: in vitro ADME; conditions: microsomes, pH 7.4, 0.5 mg/ml microsomal protein
[7] = Metabolite ID study, dog hepatocytes; assay type: in vitro ADME; conditions: 10 uM compound 9, T=60 min
Description: as §2, §3, §4, §6, §5

CNS(=O)(=O)Nc1cccc(Cc2c(CN(C)C)c3ccc(OC(=O)N(C)C)cc3oc2=O)c1F [Compound 9]
A549 pERK:tERK ratio [10 nM; 2 hr] (A549 (KRAS-G12S) pERK; 10 nM, 2 hr): 0.62 | IC50 (A549 (KRAS-G12S) pERK; Homo sapiens, A549, 12-point dose, 2 hours): 0.0198 µM | A375 pERK:tERK ratio [10 nM; 2 hr] (A375 pERK:tERK): 0.71 | extent of metabolism in hepatocytes from different species [1]: not extensively metabolized | half-life at 1 uM [2]: 44 min | microsomal CLint at 1 uM [2]: 32 µL/min/mg | % of total compound related material based on peak area, Mouse [3]: 97% | pERK: total ERK (% relative to vehicle) [4]: 0.60% and 1.81% | % of total compound related material based on peak area, Monkey [5]: 95% | half-life at 1 uM [6]: 35 min | microsomal CLint at 1 uM [6]: 40 µL/min/mg | % of total compound related material based on peak area, Dog [7]: 96%
